# Patent US20090269795A1, “Mutant alpha4betadelta GABAA receptor and methods of treating anxiety or irritability” (priority 2007, published 2009)
# Columns and labels:
# [1] = system: α4 and δ GABAA receptor subunits; test: Western blot of hippocampal α4 and δ subunit expression; type: in vivo, mouse; conditions: replacement THP 10 mg kg−1 day−1 for 3 days
# Source text: Animal subjects. Prepubertal and pubertal female C57BL6 mice (3½-6 weeks old, +/+ and δ^−/−1) were housed in a reverse light:dark cycle (12:12). Both sets of mice were originally supplied by G. Homanics (Univ. of Pittsburgh), and were bred on site, with +/+ mice supplemented from Jackson Laboratories (Bar Harbor, Me.). Initially, age-matched+/+littermates of the δ^−/−were used as controls, but because they were indistinguishable from C57BL6, data from both groups were pooled. Genotyping of the tails verified that mice were homozygous δ^−/−. […] The onset of puberty was determined by vaginal opening, and pubertal mice tested on the day of first metestrus, identified by vaginal morphology and verification of first estrus the previous day. […] Individual stages of puberty were not distinguished, and pre-pubertal mice were used before any visible signs of pubertal development, assessed by development of the peri-vaginal area. […]
# Western blot: Procedures were performed on hippocampal membranes at protein concentrations in the linear range (5-10 μg), as we have described^7. Following preparation of crude hippocampal membranes, individual protein concentrations were assessed using the Bradford assay. […] (The δ antibody was a generous gift from W. Sieghart.) Optical densities were quantified with One-Dscan software from a scanned image. […]
# [2] = system: α4β2δ GABAA receptors; test: Whole cell patch clamp of GABA-gated current, recombinant receptors in HEK-293 cells; type: cell-based, human or mouse α4, rat β2, human δ; conditions: 30 nM THP
# Source text: Recombinant receptors: Transfection—Plasmids obtained from S. Vicini (rat α1, α5, β2, β3 and γ2), P. Whiting (human α4 and δ) and N. L. Harrison (mouse α4) were propagated in E coli DH5α and prepared using Qiagen Maxi- or Midi-prep kits. (Rat, mouse and human α1, β2, β3 and γ2 subunits are identical or nearly identical.) All receptors were transfected at a 1:1:1 ratio, except α1β2γ2 (1:1:5)^12, α4βδ (5:1:5)^13 and α4β2γ2 (5:1:1). HEK-293 cells were maintained in medium (DMEM:Ham's F-12 1:1) supplemented with 10% fetal calf serum at 37° C. in a humid 5% CO2 atmosphere. Cells were transfected using calcium phosphate or Polyfect (Qiagen) and co-transfected with enhanced green fluorescent protein (ratio of DNA to eGFP was 6:1 or 10:1 depending on the DNA concentration) for visualization. α4-containing GABAA receptors required 2-3 d for maximal levels of expression; all other receptors were recorded 1-2 d after transfection. Because mouse α4 and human α4-containing receptors yielded the same results, the currents were averaged together.
# Whole cell patch clamp recording—GABA-gated currents were recorded at room temperature (20-22° C.) at a holding potential of −50 mV^14. The pipet solution contained (in mM): N-methyl-D-glucamine chloride 120, Cs4BAPTA 5 (Calbiochem), Mg-ATP 5, and an ATP regeneration system (20 mM Tris phosphocreatine and creatine kinase). Internal [Cl^−] or the holding potential were varied, using gluconate as the anion, to alter the direction of Cl^− flow, corrected for the junction potential. In some cases, current-voltage curves were constructed using the peak current response to agonist or agonist+THP across a range of holding potentials (−60 to +60) applied as 10 mV steps, or as a voltage ramp. […] Traces are presented as the average of 3 traces after subtraction of the leak current. […] This rapid application technique yields currents with a rapid rise phase. THP was also bath applied 30 s prior to tests of steroid effects. Currents were recorded using an Axopatch 1D amplifier (Axon Instruments) filtered at 2 kHz (four-pole Bessel filter) and detected at 10 kHz (pClamp 5.1). Analysis of peak current was accomplished with pClamp 9.2 and Origin software (Microcal).
# Following the recording, the patch was blown out, and the open tip potential recorded using solutions with a 5% difference in NaCl osmolarity to verify the approximate solution exchange time. The time constant (τ) for desensitization was approximated using non-linear curve fitting routines with Levenburg-Marquardt algorithms (Origin software, Microcal). Goodness of fit was determined by minimizing the sum of the squares of deviations of the theoretical curve from the experimental points.
# Recombinant receptors: Human embryonic kidney (HEK)-293 cells were transfected with α4 β2δ or other indicated subunit combinations (see Supplementary Methods) and co-transfected with enhanced green fluorescent protein for visualization. GABA-gated currents were recorded at room temperature (20-22° C.) at a holding potential of −50 mV^17 using a pipet solution containing 120 mM: N-methyl-D-glucamine chloride. Internal [Cl^−] or the holding potential were varied to alter the direction of Cl^− flow. […] Currents were recorded using an Axopatch 1D amplifier (Axon Instruments) filtered at 2 kHz (four-pole Bessel filter), detected at 10 kHz and analyzed with pClamp 9.2. Desensitization rate was determined using non-linear curve-fitting routines (Origin, Microcal; see next section).
# Further Studies with Recombinant receptors: Transfection—Plasmids obtained from S. Vicini (rat α1, α5, β2, β3 and y2), P. Whiting (human α4 and 6) and N. L. Harrison (mouse α4) were propagated in E coli DH5α and prepared using Qiagen Maxi- or Midi-prep kits. (Rat, mouse and human α1, β2, β3 and γ2 subunits are identical or nearly identical.) All receptors were transfected at a 1:1:1 ratio, except a132γ2 (1:1:5)^12, α4β28 (5:1:5)^13 and α4β2γ2 (5:1:1). […]
structure (smiles),measurement,setting,value
"CC(=O)[C@H]1CC[C@H]2[C@@H]3CC[C@H]4C[C@H](O)CC[C@]4(C)[C@H]3CC[C@]12C [THP, 3α-OH-5α[β]-pregnan-20-one]",effect on increased expression of α4 and δ subunits at onset of puberty,[1],prevented
same,effect on Cl− reversal potential,[2],did not itself alter the Cl^− reversal potential
same,effect applied without GABA,[2]; no GABA,had no effect
same,effect on outward current gated by 20 nM GABA,[2]; 20 nM GABA,potentiated
same,effect on inward currents,[2]; 1 μM GABA,robustly increased inward currents
same,decrease of outward GABA-gated Cl− current,"[2]; 1 μM GABA, −50 mV, mean±SEM",28±3%
same,effect on peak current,[2]; 100 μM GABA,unchanged
same,desensitization of outward currents,"[2]; 100 μM GABA for 2 s, pre-THP 8±2%",87±5.6%
same,time constant (τ) of desensitization,"[2]; 100 μM GABA, pre-THP 1700±200 ms",230 ± 35 ms
same,decrease of conductance of the outward current,[2]; across a range of voltage steps,36-43%
